These results are taken from ChEMBL document CHEMBL4387701, “H2depda: An acyclic adjuvant potentiates meropenem activity in vitro against metallo-β-lactamase-producing enterobacterales” (Eur J Med Chem, 2019).

Data set [1] relates to Escherichia coli. As to the kind of experiment: Effect on growth of Escherichia coli isolate 14 after 24 hrs by broth microdilution method. The data set is classed as organism-based. A general note: In broth dilution the organism is exposed to a series of concentrations in liquid medium.
Data set [2] deals with Klebsiella pneumoniae. The data set can be described thus: Inhibition of IMP4 in Klebsiella pneumoniae isolate 17 assessed as potentiation of meropenem-induced antibacterial activity by measuring meropenem MIC after 24 hrs by broth microdilution method (reference value: 32 ug/ml).
The target of data set [3] is T1, Metallo-beta-lactamase NDM-4 (Escherichia coli) (UniProt H6WZS9).
T1 sequence (whole entry): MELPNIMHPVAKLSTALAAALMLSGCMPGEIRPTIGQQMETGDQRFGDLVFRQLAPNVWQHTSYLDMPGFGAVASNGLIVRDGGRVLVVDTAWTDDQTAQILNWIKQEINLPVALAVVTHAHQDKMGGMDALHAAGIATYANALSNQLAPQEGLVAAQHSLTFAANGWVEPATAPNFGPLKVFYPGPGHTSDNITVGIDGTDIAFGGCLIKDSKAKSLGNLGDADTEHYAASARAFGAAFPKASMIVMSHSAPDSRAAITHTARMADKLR
As to the kind of experiment: Inhibition of Escherichia coli NDM4 assessed as potentiation of meropenem-induced antibacterial activity by measuring bacterial growth rate at 64 ug/mL after 24 hrs in presence of ZnCl2 by broth microdilution method relative to control.

The test system of data set [4] is Escherichia coli ATCC 25922. The data set can be described thus: Inhibition of IMP-4 in Escherichia coli ATCC 25922 assessed as potentiation of meropenem-induced antibacterial activity by measuring diameter of inhibition zone measured after 18 hrs by agar disk diffusion method.
Data set [5] concerns the target T1, Metallo-beta-lactamase NDM-4 (Escherichia coli). As to the kind of experiment: Inhibition of NDM4 in Escherichia coli isolate 3 assessed as potentiation of meropenem-induced bactericidal activity by measuring log reduction in bacterial colonies at 64 ug/ml incubated for 24 hrs followed by replating on agar plates for 16 to 18 hrs and measured up to 24 hrs by time kill assay.

The target is the same in data set [6]. The data set can be described thus: Inhibition of NDM4 in Escherichia coli isolate 3 assessed as potentiation of meropenem-induced antibacterial activity by measuring meropenem MIC after 24 hrs by broth microdilution assay (reference value: 1280 ug/ml).
Data set [7] relates to Enterobacter cloacae. As to the kind of experiment: Effect on growth of Enterobacter cloacae isolate 4 after 24 hrs by broth microdilution assay. The data set is classed as organism-based.
Data set [8] has as its target T1, Metallo-beta-lactamase NDM-4 (Escherichia coli). The data set can be described thus: Inhibition of NDM4 in Escherichia coli isolate 3 assessed as potentiation of meropenem-induced bactericidal activity by measuring bacterial killing in early exponential phase at 64 ug/ml incubated for 24 hrs followed by replating on agar plates for 16 to 18 hrs and measured up to 24 hrs by time kill assay. To be noted: TDE = time-dependent effect.

The nature of data set [9]: Hemolytic activity in sheep RBC at 1000 ug/ml measured after 1 hr relative to control. The data set is classed as ADME, cell-based, Ovis aries, Erythrocyte. To be noted: sheep red blood cells (erythrocytes), read-out: Activity.
The subject of data set [10] is Escherichia coli. The data set can be described thus: Effect on growth of Escherichia coli isolate 1 after 24 hrs by broth microdilution assay. The data set is classed as organism-based.
Data set [11] deals with Klebsiella pneumoniae. As to the kind of experiment: Effect on growth of Klebsiella pneumoniae isolate 10 after 24 hrs by broth microdilution method. The data set is classed as organism-based.
In data set [12] the test system is Escherichia coli. The data set can be described thus: Effect on growth of Escherichia coli isolate 3 after 24 hrs by broth microdilution assay. The data set is classed as organism-based.
In data set [13] the test system is Escherichia coli. As to the kind of experiment: Effect on growth of Escherichia coli isolate 8 after 24 hrs by broth microdilution assay. It counts as organism-based.
In data set [14] the test system is Enterobacter cloacae. The data set can be described thus: Effect on growth of Enterobacter cloacae isolate 5 after 24 hrs by broth microdilution assay. It counts as organism-based.
The nature of data set [15]: Competitive inhibition of bacterial NDM1 (G28 to R270 residues) expressed in Escherichia coli BL21 (DE3) using varying levels of MEPM as substrate preincubated for 15 mins followed by substrate addition measured at 60 secs interval up to 60 mins by Lineweaver-Burk plot analysis. Details: species or system Bacteria.
Data set [16] deals with Enterobacter cloacae. The data set can be described thus: Inhibition of NDM1 in Enterobacter cloacae isolate 6 assessed as potentiation of meropenem-induced antibacterial activity by measuring meropenem MIC after 24 hrs by broth microdilution assay (reference value: 320 ug/ml).
For data set [17], the target named is T1, Metallo-beta-lactamase NDM-4 (Escherichia coli). As to the kind of experiment: Inhibition of Escherichia coli NDM4 assessed as potentiation of meropenem-induced antibacterial activity by measuring reduction in bacterial growth at 64 ug/mL after 24 hrs by broth microdilution method relative to control.
Data set [18] has as its system Enterobacter cloacae. As to the kind of experiment: Effect on growth of Enterobacter cloacae isolate 15 after 24 hrs by broth microdilution method. The data set is classed as organism-based.
Data set [19] relates to Enterobacter cloacae. As to the kind of experiment: Inhibition of IMP4 in Enterobacter cloacae isolate 16 assessed as potentiation of meropenem-induced antibacterial activity by measuring meropenem MIC after 24 hrs by broth microdilution method (reference value: 64 ug/ml).
The subject of data set [20] is HeLa. As to the kind of experiment: Cytotoxicity against human HeLa cells at 128 ug/mL after 24 hrs by calcein AM/propidium iodide staining based fluorescence microscopic method. It counts as cell-based.
Data set [21] has as its system Escherichia coli ATCC 25922. The data set can be described thus: Inhibition of IMP-4 in Escherichia coli ATCC 25922 assessed as potentiation of meropenem-induced antibacterial activity by measuring zone of inhibition by agar disk diffusion method. On the technique in general: A growth-free zone around the sample is the usual read-out of agar diffusion tests.
The target in data set [22] is T1, Metallo-beta-lactamase NDM-4 (Escherichia coli). As to the kind of experiment: Inhibition of NDM4 in Escherichia coli isolate 3 assessed as potentiation of meropenem-induced bactericidal activity by measuring bacterial killing at 64 ug/ml incubated for 24 hrs followed by replating on agar plates for 16 to 18 hrs and measured up to 24 hrs by time kill assay relative to control.

In data set [23] the test system is Escherichia coli. The data set can be described thus: Inhibition of IMP4 in Escherichia coli isolate 18 assessed as potentiation of meropenem-induced antibacterial activity by measuring meropenem MIC after 24 hrs by broth microdilution method (reference value: 16 ug/ml).
Data set [24] deals with Stenotrophomonas maltophilia. As to the kind of experiment: Potency index, ratio of EDTA IC50 to test compound IC50 for Stenotrophomonas maltophilia NDM1 expressed in Escherichia coli BL21 (DE3) expressing measured after 15 minutes at interval of 60s.
Data set [25] is described as follows: Non-competitive inhibition of bacterial NDM1 (G28 to R270 residues) expressed in Escherichia coli BL21 (DE3) using varying levels of MEPM as substrate preincubated for 15 mins followed by substrate addition measured at 60 secs interval up to 60 mins by Lineweaver-Burk plot analysis. The arrangement: species or system Bacteria.
Data set [26] deals with HeLa. As to the kind of experiment: Cytotoxicity against human HeLa cells at 64 ug/mL after 24 hrs by calcein AM/propidium iodide staining based fluorescence microscopic method. The data set is classed as cell-based.

Converted amounts (≈) assume the structure as drawn. The source made the active and inactive calls. The rule behind the calls is not given here.

Broadly, the inhibition is the share of the control response that was lost under treatment. The term Ki denotes a dissociation constant, usually derived from enzyme kinetics or from competition with a known ligand. As to `O=C(O)c1cccc(CNCCNCc2cccc(C(=O)O)n2)n1`, the MIC in data set [1] is 32 µg/mL (≈ 96.9 µM); in data set [2], 8 µg/mL; in data set [6], under 0.0312 µg/mL; in data set [7] it was 64 µg/mL (≈ 194 µM); in [10], 32 µg/mL (≈ 96.9 µM); in [11] it was 64 µg/mL (≈ 194 µM). In addition, the MIC in [12] is 32 µg/mL (≈ 96.9 µM); in [13] it was 64 µg/mL (≈ 194 µM); in [14], 64 µg/mL (≈ 194 µM); in data set [16], 2 µg/mL; in data set [18] it was 32 µg/mL (≈ 96.9 µM); in data set [19] it was 2 µg/mL. The MIC in data set [23] amounted to 2 µg/mL. The values for the inhibition in [3], in data set [8] and in [22] were 81%, “Tde” and 99.9%, respectively. For the same compound, the inhibition zone (IZ) in data set [4] is 2 to 5 mm; in [21] it was 18.3 mm. Besides, the FC in data set [5] turned out to be 3. Also, the hemolysis at 1 h, 1000 ug/ml in data set [9] turned out to be 0.1%. Besides, the Ki in data set [15] was determined as 680 nM. In addition, the inhibition result in data set [17] is “Active”. The Activity entry in data set [20] is given as “Non-Toxic”.

Turning to `COc1ccc(CN(CCN(Cc2ccc(OC)cc2)Cc2cccc(C(=O)O)n2)Cc2cccc(C(=O)O)n2)cc1`, the MIC in data set [1] was 32 µg/mL (≈ 56.1 µM); in data set [2] it was 8 µg/mL; in [6], under 0.0312 µg/mL; in [7], 64 µg/mL (≈ 112 µM); in data set [10] it was 32 µg/mL (≈ 56.1 µM); in [11] it was 64 µg/mL (≈ 112 µM). Besides, the MIC amounted to 64 µg/mL (≈ 112 µM) in data set [12]; 64 µg/mL (≈ 112 µM) in data set [13]; 64 µg/mL (≈ 112 µM) in data set [14]; 2 µg/mL in data set [16]; 32 µg/mL (≈ 56.1 µM) in data set [18]; 2 µg/mL in data set [19]. In addition, the MIC in data set [23] is 2 µg/mL. Moreover, the inhibition in data set [3] was 81%; in data set [8], “Tde”. The inhibition zone (IZ) in [4] is 2 to 5 mm; in data set [21], 15.9 mm. Further, the Ratio IC50 in data set [24] turned out to be 200. The same compound yielded a Ki in data set [25] of 144 nM. The hemolysis at 1 h, 1000 ug/ml in data set [9] was 2.94%. Moreover, in data set [26], the Activity result is listed as “Non-Toxic”. Besides, the inhibition result in data set [17] was “Active”.
